Structures can show the parent of a compound that is named as a salt.
Target: PD-1/PD-L1 interaction (PD-1-Ig / PD-L1-His) (Homo sapiens (Human), UniProt Q9NZQ7)
Experiment: PD-1/PD-L1 Homogenous Time-Resolved Fluorescence (HTRF) binding assay
Details: PD-1/PD-L1 HTRF binding assay; numeric value; read-out: Range or IC50
Method in brief: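 Human PD-L1-His (10 nM final) was pre-incubated with inhibitor for 15 min, then PD-1-Ig (20 nM final) was added for a further 15 min in dPBS with 0.1% BSA and 0.05% Tween-20. Binding was detected by HTRF using Eu-cryptate anti-Ig (1 nM) and APC anti-His (20 nM).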

Sequence of PD-1/PD-L1 interaction (PD-1-Ig / PD-L1-His) (Q9NZQ7 other isoform, or with tags, fused parts or gaps): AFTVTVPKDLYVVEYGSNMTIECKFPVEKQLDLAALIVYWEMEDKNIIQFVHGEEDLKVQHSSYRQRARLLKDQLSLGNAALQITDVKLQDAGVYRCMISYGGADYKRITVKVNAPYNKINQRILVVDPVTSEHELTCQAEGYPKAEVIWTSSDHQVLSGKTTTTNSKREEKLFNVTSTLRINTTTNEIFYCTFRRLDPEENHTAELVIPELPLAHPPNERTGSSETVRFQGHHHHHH

| Structure (SMILES) | IC50 |
| --- | --- |
| Cc1c(COc2cc(OCc3cccc(C#N)c3)c(CNC3(C(=O)O)CCN(C)CC3)cc2Cl)cccc1-c1ccc2c(c1)OCCO2 [Example 1220, 4-((5-chloro-2-((3-cyanobenzyl)oxy)-4-((3-(2,3-dihydrobenzo[b][1,4]dioxin-6-yl)-2-methylbenzyl)oxy)benzyl)amino)-1-methylpiperidine-4-carboxylic acid] | 6.07 nM |

Same assay, conditions: PD-1/PD-L1 HTRF binding assay; value given as range class; read-out: Range or IC50

| Structure (SMILES) | IC50 |
| --- | --- |
| C[C@](CO)(NCc1ccc(OCc2cccc(-c3ccc4c(c3)OCCO4)c2Cl)cc1OCc1cccc(C#N)c1)C(=O)O [Example 1148, (R)-2-(4-(2-chloro-3-(2,3-dihydrobenzo[b][1,4]dioxin-6-yl)benzyloxy)-2-(3-cyanobenzyloxy)benzylamino)-3-hydroxy-2-methylpropanoic acid] | 0.6 to 10 nM |
| Cc1c(COc2cc(OCc3cncc(C#N)c3)c(CN3CCCC[C@H]3C(=O)NS(=O)(=O)C(C)C)cc2Cl)cccc1-c1ccc2c(c1)OCCO2 [Example 1260, (S)-1-(5-chloro-2-((5-cyanopyridin-3-yl)methoxy)-4-((3-(2,3-dihydrobenzo[b][1,4]dioxin-6-yl)-2-methylbenzyl)oxy)benzyl)-N-(isopropylsulfonyl)piperidine-2-carboxamide] | 0.6 to 10 nM |
| Cc1cc(CN[C@](C)(CO)C(=O)O)c(OCc2cccnc2)cc1OCc1cccc(-c2ccc3c(c2)OCCO3)c1C [Example 1281, (R)-2-((4-((3-(2,3-dihydrobenzo[b][1,4]dioxin-6-yl)-2-methylbenzyl)oxy)-5-methyl-2-(pyridin-3-ylmethoxy)benzyl)amino)-3-hydroxy-2-methylpropanoic acid] | 0.6 to 10 nM |
| Cc1c(COc2cc(OCc3cncc(C#N)c3)c(CN3CCCC[C@H]3C(=O)O)cc2Cl)cccc1-c1ccc2c(c1)OCCO2 [Example 1253, (S)-1-(5-chloro-2-((5-cyanopyridin-3-yl)methoxy)-4-((3-(2,3-dihydrobenzo[b][1,4]dioxin-6-yl)-2-methylbenzyl)oxy)benzyl)piperidine-2-carboxylic acid, TFA salt] | 0.6 to 10 nM |
| Cc1c(COc2cc(OCc3cncc(C#N)c3)c(CN[C@@H](CCCCN(C)C)C(=O)O)cc2Cl)cccc1-c1ccc2c(c1)OCCO2 [Example 2006, (S)-2-((5-chloro-2-((5-cyanopyridin-3-yl)methoxy)-4-((3-(2,3-dihydrobenzo[b][1,4]dioxin-6-yl)-2-methylbenzyl)oxy)benzyl)amino)-6-(dimethylamino)hexanoic acid] | 0.6 to 10 nM |
| Cc1c(COc2cc(OCc3cncc(C#N)c3)c(CN[C@@H](CCC(=O)O)C(=O)O)cc2Cl)cccc1-c1ccc2c(c1)OCCO2 [Example 2012, (S)-2-((5-chloro-2-((5-cyanopyridin-3-yl)methoxy)-4-((3-(2,3-dihydrobenzo[b][1,4]dioxin-6-yl)-2-methylbenzyl)oxy)benzyl)amino)pentanedioic acid] | 0.6 to 10 nM |
| CC(=O)NCCNCc1ccc(OCc2cccc(-c3ccccc3)c2C)cc1OCc1cc(F)ccc1F [Example 1060, N-(2-((2-((2,5-difluorobenzyl)oxy)-4-((2-methyl-[1,1′-biphenyl]-3-yl)methoxy)benzyl)amino)ethyl)acetamide] | 100 to 20000 nM |
| CCOc1cc(OCc2cccc(-c3ccccc3)c2C)ccc1CNCCNC(C)=O [Example 1044, N-(2-((2-ethoxy-4-((2-methyl-[1,1′-biphenyl]-3-yl)methoxy)benzyl)amino)ethyl)acetamide] | 100 to 20000 nM |
| CC(=O)NCCNCc1ccc(OCc2cccc(-c3ccccc3)c2C)cc1OCc1cccc(C(=O)c2ccccc2)c1 [Example 1073, N-(2-((2-((3-benzoylbenzyl)oxy)-4-((2-methyl-[1,1′-biphenyl]-3-yl)methoxy)benzyl)amino)ethyl)acetamide] | 100 to 20000 nM |
| Cc1c(COc2cc(OCc3cccc(C#N)c3)c(CN[C@@H](CCS(C)(=O)=O)C(=O)O)cc2Cl)cccc1-c1ccc2c(c1)OCCO2 [Example 1200, (S)-2-((5-chloro-2-((3-cyanobenzyl)oxy)-4-((3-(2,3-dihydrobenzo[b][1,4]dioxin-6-yl)-2-methylbenzyl)oxy)benzyl)amino)-4-(methylsulfonyl)butanoic acid] | 10 to 100 nM |
| CC(=O)NCCNCc1ccc(OCc2cccc(-c3ccccc3)c2C)cc1OCc1ccc(Br)cc1C#N [Example 1097, N-(2-((2-((4-bromo-2-cyanobenzyl)oxy)-4-((2-methyl-[1,1′-biphenyl]-3-yl)methoxy)benzyl)amino)ethyl)acetamide] | 100 to 20000 nM |
| Cc1c(COc2cc(OCc3cccc(C#N)c3)c(CN[C@@H](Cc3cn(C)cn3)C(=O)O)cc2Cl)cccc1-c1ccc2c(c1)OCCO2 [Example 1176, (S)-2-((5-chloro-2-((3-cyanobenzyl)oxy)-4-((3-(2,3-dihydrobenzo[b][1,4]dioxin-6-yl)-2-methylbenzyl)oxy)benzyl)amino)-3-(1-methyl-1H-imidazol-4-yl)propanoic acid] | 0.6 to 10 nM |
| N#Cc1cccc(COc2cc(OCc3cccc(-c4ccc5c(c4)OCCO5)c3C#N)c(Br)cc2CNC[C@@H](O)CC(=O)O)c1 [Example 1314, (S)-4-((5-bromo-4-((2-cyano-3-(2,3-dihydrobenzo[b][1,4]dioxin-6-yl)benzyl)oxy)-2-((3-cyanobenzyl)oxy)benzyl)amino)-3-hydroxybutanoic acid] | 0.6 to 10 nM |
| CSC[C@H](NCc1cc(Cl)c(OCc2cccc(-c3ccc4c(c3)OCCO4)c2C)cc1OCc1cccc(C#N)c1)C(=O)O [Example 1160, (R)-2-((5-chloro-2-((3-cyanobenzyl)oxy)-4-((3-(2,3-dihydrobenzo[b][1,4]dioxin-6-yl)-2-methylbenzyl)oxy)benzyl)amino)-3-(methylthio)propanoic acid] | 10 to 100 nM |
| CC(=O)Nc1cc(COc2cc(OCc3cccc(-c4ccc5c(c4)OCCO5)c3C)c(Cl)cc2C=O)ccn1 [Example 3010, N-(4-((4-chloro-5-((3-(2,3-dihydrobenzo[b][1,4]dioxin-6-yl)-2-methylbenzyl)oxy)-2-formylphenoxy)methyl)pyridin-2-yl)acetamide] | 100 to 20000 nM |
| Cc1c(COc2ccc(CN[C@](C)(CO)C(=O)O)c(OCc3cc(C#N)ccn3)c2)cccc1-c1ccc2c(c1)OCCO2 [Example 1131, (R)-2-(2-((4-cyanopyridin-2-yl)methoxy)-4-(3-(2,3-dihydrobenzo[b][1,4]dioxin-6-yl)-2-methylbenzyloxy)benzylamino)-3-hydroxy-2-methylpropanoic acid] | 0.6 to 10 nM |
| Cc1c(COc2cc(OCc3cccc(C#N)c3)c(CNC(C)(C)CN3CCN(C)CC3)cc2Cl)cccc1-c1ccc2c(c1)OCCO2 [Example 1223, 3-((4-chloro-5-((3-(2,3-dihydrobenzo[b][1,4]dioxin-6-yl)-2-methylbenzyl)oxy)-2-(((2-methyl-1-(4-methylpiperazin-1-yl)propan-2-yl)amino)methyl)phenoxy)methyl)benzonitrile] | 0.6 to 10 nM |
| CC(=O)NCCNCc1ccc(OCc2cccc(-c3ccccc3)c2C)cc1OCc1cccnc1 [Example 1117, N-(2-((4-((2-methyl-[1,1′-biphenyl]-3-yl)methoxy)-2-(pyridin-3-ylmethoxy)benzyl)amino)ethyl)acetamide] | 10 to 100 nM |
| Cc1c(COc2cc(OCc3cncc(C#N)c3)c(CN[C@](C)(CO)C(=O)O)cc2Cl)cccc1-c1ccc2c(c1)OCCO2 [Example 1248, (R)-2-((5-chloro-2-((5-cyanopyridin-3-yl)methoxy)-4-((3-(2,3-dihydrobenzo[b][1,4]dioxin-6-yl)-2-methylbenzyl)oxy)benzyl)amino)-3-hydroxy-2-methylpropanoic acid] | 0.6 to 10 nM |
| N#Cc1cccc(COc2cc(OCc3cccc(-c4ccc5c(c4)OCCO5)c3Cl)ccc2CNC[C@@H](O)CC(=O)O)c1 [Example 1147, (S)-4-(4-(2-chloro-3-(2,3-dihydrobenzo[b][1,4]dioxin-6-yl)benzyloxy)-2-(3-cyanobenzyloxy)benzylamino)-3-hydroxybutanoic acid] | 0.6 to 10 nM |
| Cc1cc(CN[C@](C)(CO)C(=O)O)c(OCc2cccc(C#N)c2)cc1OCc1cccc(-c2ccc3c(c2)OCCO3)c1C [Example 1269, (R)-2-((2-((3-cyanobenzyl)oxy)-4-((3-(2,3-dihydrobenzo[b][1,4]dioxin-6-yl)-2-methylbenzyl)oxy)-5-methylbenzyl)amino)-3-hydroxy-2-methylpropanoic acid] | 0.6 to 10 nM |
| CC(=O)NCCNCc1ccc(OCc2cccc(-c3ccccc3)c2C)cc1OCc1noc(C)n1 [Example 1104, N-(2-((2-((5-methyl-1,2,4-oxadiazol-3-yl)methoxy)-4-((2-methyl-[1,1′-biphenyl]-3-yl)methoxy)benzyl)amino)ethyl)acetamide] | 100 to 20000 nM |
| Cc1c(COc2cc(OCc3cccc(C#N)c3)c(CN[C@H](CO)C(=O)O)cc2Cl)cccc1-c1ccc2c(c1)OCCO2 [Example 1157, (R)-2-((5-chloro-2-((3-cyanobenzyl)oxy)-4-((3-(2,3-dihydrobenzo[b][1,4]dioxin-6-yl)-2-methylbenzyl)oxy)benzyl)amino)-3-hydroxypropanoic acid] | 0.6 to 10 nM |
| Cc1c(COc2cc(OCc3cccc(C#N)c3)c(CN[C@@H](C(=O)O)[C@@H](C)O)cc2Cl)cccc1-c1ccc2c(c1)OCCO2 [Example 1163, (2R,3R)-2-((5-chloro-2-((3-cyanobenzyl)oxy)-4-((3-(2,3-dihydrobenzo[b][1,4]dioxin-6-yl)-2-methylbenzyl)oxy)benzyl)amino)-3-hydroxybutanoic acid] | 0.6 to 10 nM |
| COc1cc(OCc2cccc(-c3ccccc3)c2C)cc(OCc2cccc(C#N)c2)c1CN[C@@H](C(=O)O)[C@@H](C)O [Example 1138, (2R,3R)-2-((2-((3-cyanobenzyl)oxy)-6-methoxy-4-((2-methyl-[1,1′-biphenyl]-3-yl)methoxy)benzyl)amino)-3-hydroxybutanoic acid] | 10 to 100 nM |
| Cc1c(COc2cc(OCc3cncc(C#N)c3)c(CNCC(=O)O)cc2Cl)cccc1-c1ccc2c(c1)OCCO2 [Example 2013, 2-((5-chloro-2-((5-cyanopyridin-3-yl)methoxy)-4-((3-(2,3-dihydrobenzo[b][1,4]dioxin-6-yl)-2-methylbenzyl)oxy)benzyl)amino)acetic acid] | 0.6 to 10 nM |

Source: patent US9850225B2, “Compounds useful as immunomodulators” (BRISTOL-MYERS SQUIBB COMPANY, priority 2014, dated 2017)
